From ChEMBL document CHEMBL3580619, “The antimalarial drug atovaquone binds to saposin B with comparable affinity to coenzyme Q10” (Medchemcomm, 2014) come the findings set out here.

Data set [1] addresses T1, Albumin (Homo sapiens, UniProt P02768). The data set is described as follows: Ratio of Ka for human serum albumin by ITC method to Ka for human serum albumin by CD spectroscopy. The class given is ADME. (Isothermal titration calorimetry measures the heat released or taken up as one component is titrated into another.)
Data set [2] is described as follows: Inhibition of coenzyme Q10 binding to cytochrome bc1 complex (unknown origin).
Data set [3] in a line: Protein binding in human plasma. The following applies: read-out: PPB. The class given is ADME, cell-free.
Data set [4] concerns the target T1, Albumin. Briefly: Binding affinity to human serum albumin by CD spectroscopy. The class given is ADME. The settings on record: isolated protein.
The target of data set [5] is T2, Prosaposin (Homo sapiens, UniProt P07602).
T2 sequence (P07602 whole entry): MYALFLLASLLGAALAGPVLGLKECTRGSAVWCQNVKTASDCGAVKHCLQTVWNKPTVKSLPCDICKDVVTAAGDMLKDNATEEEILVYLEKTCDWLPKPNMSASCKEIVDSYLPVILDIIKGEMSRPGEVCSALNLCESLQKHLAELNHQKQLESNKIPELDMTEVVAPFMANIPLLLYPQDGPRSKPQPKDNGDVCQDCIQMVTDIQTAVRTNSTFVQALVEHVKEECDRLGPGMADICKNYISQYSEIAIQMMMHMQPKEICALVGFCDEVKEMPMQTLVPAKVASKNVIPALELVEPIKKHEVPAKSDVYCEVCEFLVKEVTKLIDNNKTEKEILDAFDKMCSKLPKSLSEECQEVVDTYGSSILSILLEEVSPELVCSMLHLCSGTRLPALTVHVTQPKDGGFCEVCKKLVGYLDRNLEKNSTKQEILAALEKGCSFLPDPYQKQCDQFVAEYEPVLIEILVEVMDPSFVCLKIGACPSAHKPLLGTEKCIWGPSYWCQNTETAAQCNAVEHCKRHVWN
The data set is described as follows: Binding affinity to human saposin B expressed in Escherichia coli BL21 Gold (DE3) at 150 uM using 15 to 20 uM sapB and 50 mM MES and 10% DMF at pH 5.5 and 25 degC by ITC method. The class given is ADME. The following applies: pH 5.5, 150 µM.

Data set [6] deals with T2, Prosaposin. Briefly: Binding affinity to human saposin B expressed in Escherichia coli BL21 Gold (DE3) at 150 um using 20 uM SapB and 20 mM phosphate and 30% DMF at pH 7.4 and 25 degC by ITC method. The following applies: pH 7.4, 150 µM. The class given is ADME.
Data set [7] addresses T1, Albumin. The data set is described as follows: Binding affinity to human serum albumin at 150 uM using 20 uM HSA and 20 mM phosphate and 30% DMF at pH 7.4 and 25 degC by ITC method. The class given is ADME. The settings on record: isolated protein, pH 7.4, 150 µM.
In data set [8] the target is T1, Albumin. Briefly: Binding affinity to human serum albumin at 845 uM using 33.8 uM HSA and 14 mM phosphate and 30% DMF at pH 7.4 and 25 degC by fluorescence spectroscopy. The following applies: isolated protein, pH 7.4, 845 µM. The data set is classed as ADME.
Data set [9] addresses T1, Albumin. Briefly: Binding affinity to human serum albumin in Ringer buffer and 2 to 7% v/v ethanol at pH 7.4 and 37 degC by CD spectroscopy. The data set is classed as ADME. The following applies: isolated protein.
Data set [10] concerns the target T2, Prosaposin. Briefly: Binding affinity to human saposin B expressed in Escherichia coli BL21 Gold (DE3) at 120 uM using 15 uM sapB and 50 mM MES and 4% THF at pH 5.5 and 25 degC by ITC method. The data set is classed as ADME. The settings on record: pH 5.5, 120 µM.
The target in data set [11] is T2, Prosaposin. The data set is described as follows: Binding affinity to human saposin B expressed in Escherichia coli BL21 Gold (DE3) at 154 uM using 25 to 27 uM sapB and 50 mM MES and 50% DMF at pH 5.5 and 25 degC by ITC method. The class given is ADME. The following applies: pH 5.5, 154 µM.

T1 sequence (P02768 whole entry): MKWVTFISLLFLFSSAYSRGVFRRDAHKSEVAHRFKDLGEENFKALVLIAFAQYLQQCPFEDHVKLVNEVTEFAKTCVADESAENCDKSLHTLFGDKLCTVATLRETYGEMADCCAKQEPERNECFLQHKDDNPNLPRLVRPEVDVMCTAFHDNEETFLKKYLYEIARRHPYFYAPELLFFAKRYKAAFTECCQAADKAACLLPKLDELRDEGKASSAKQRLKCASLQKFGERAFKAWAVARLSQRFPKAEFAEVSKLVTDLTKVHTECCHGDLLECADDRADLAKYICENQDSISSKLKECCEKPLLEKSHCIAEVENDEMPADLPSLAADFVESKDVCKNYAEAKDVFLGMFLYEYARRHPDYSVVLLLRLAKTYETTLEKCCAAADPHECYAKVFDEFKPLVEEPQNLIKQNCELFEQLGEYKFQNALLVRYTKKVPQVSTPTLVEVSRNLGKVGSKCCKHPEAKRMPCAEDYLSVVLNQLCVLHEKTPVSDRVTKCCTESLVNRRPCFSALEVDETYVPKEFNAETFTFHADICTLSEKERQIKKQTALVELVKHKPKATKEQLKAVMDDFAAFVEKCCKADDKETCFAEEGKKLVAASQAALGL

Take `O=C1C(O)=C([C@H]2CC[C@H](c3ccc(Cl)cc3)CC2)C(=O)c2ccccc21` [ATOVAQUONE]: the Ratio in [1] was 10. In addition, in data set [2], the inhibitory constant (Ki) (as a rule, a measure of affinity in units of concentration, obtained from inhibition or displacement) came out at 9 nM. In addition, the fraction unbound in data set [3] was under 0.005. Moreover, the values for the Ka in [4] and in data set [8] were 2 ×10⁶ /M and 7.15 ×10⁴ /M, respectively. The K in data set [5] was found to be 1.11 ×10⁷ /M; in data set [6], 8.02 ×10⁴ /M; in data set [7] it was 1.06 ×10⁵ /M; in data set [9] it was 1 ×10⁶ /M.
Consider `COC1=C(OC)C(=O)C(C/C=C(\C)CC/C=C(\C)CC/C=C(\C)CC/C=C(\C)CC/C=C(\C)CC/C=C(\C)CC/C=C(\C)CC/C=C(\C)CC/C=C(\C)CCC=C(C)C)=C(C)C1=O` [UBIDECARENONE], for which the K came to 2.41 ×10⁷ /M in [10] and 1.7 ×10⁷ /M in data set [11].
